How the values were obtained:
Type in all cases: in vivo
Aspergillus flavus [1] = assay: Aspergillus flavus pulmonary infection model in compromised mice, oral treatment; conditions: for %ANIMALS NEG / %SURVIVAL: 18 days post infection; for %ANIMALS NEG: negative = <10 colonies; for %SURVIVAL: compromised CF-1 mice
From the text: The in vivo oral antifungal activity of the compounds of Example 23-26 were compared to those of itraconazole, fluconazole and saperconazole in an Aspergillus pulmonary infection model in mice. The procedure of David Loebenberg et al. entitled "Sch 42427, The Active Enantiomer of Antifungal agent Sch 39304: In Vitro and In Vivo Activity" Antimicrobial Agents and Chemotherapy (1992), 36 498-501 was used. The Aspergillus flavus pulmonary model was run in the following manner Male, CF-1 mice weighing 20 grams were compromised with cortisone acetate (100 mg/kg), administered subcutaneously, once daily for 3 days. In addition, to prevent bacterial disease, tetracycline HCL (300 mg/1) was added to the drinking water and given ad libitum. On day 2 of compromising, mice were infected in an inhalation chamber, first described by Piggot and Emmons in 1960 and modified by us. The chamber is a 1 liter pyrex, thick-walled flask with 8 tubular side-arms that extend into the flask. Each side-arm is a pyrex tube of 14 cm length, constricted to a 1 cm opening inside the flask. The bottom of the flask was covered with a malt extract agar medium on which a sporulating culture of A. flavus ATCC 24133 was grown for 13 days at room temperature. The top of the flask was closed with a #10 stopper through which passed a glass tube attached by rubber tubing to a 60 mL syringe. Mice were placed in each of the side arms and pushed to the bottoms so that their nares extended beyond the open end of the tube and over the agar. Cotton plugs were then inserted behind the mice to hold them in place. By pumping the 60 mL syringe twice, air was forced over the culture and produced a cloud of spores. Mice were exposed to the spore cloud for one minute. Within 15-30 minutes after exposure, a number of mice were sacrificed and lung tissue samples homogenized for culture to determine the number of inhaled conidia. Oral treatment began 24 h post-infection with doses of 5 to 250 mg of drug/kg in ethanol; vehicle (115 ml of Emulphor EL-719P, GAF, Wayne, NJ; and 5 ml of 20% w/v lactic acid per liter of water), 10:90 v/v, once daily for 4 days.
The procedure of Example 31 was used to compare the in vivo oral antifungal activity of (±)-5R/S-(cis)-4-[4-[4-[4-[[5-(2,4-difluorophenyl)-5-(1H-1,2,4-triazol-1-ylmethyl) tetrahydrofuran-3-yl]methoxy-phenyl-1-piperazinyl]phenyl]-2,4-dihydro-2[(R/S)-(1-methylpropyl)]-3H-1,2,4-triazol-3-one with (±)-2R/S-(cis)-1-[4-[[2-(2,4-difluorophenyl)-2-(1H-1,2,4-triazol-1-ylmethyl) tetrahydro-4-furanyl]methoxy]phenyl]-4-(1-methylethyl)piperazine of Example 68 of USP 5,039,676 in an Aspergillus pulmonary infection model described in Example 31. […]
The procedures of Examples 31 and 34 were used.

C. albicans C-65 = assay: Candida systemic model in normal and compromised CF1 mice infected with C. albicans C-65, oral treatment; conditions: for CFUs (GM): geometric mean of the logarithms of CFU in the kidneys
Description: The compounds of Examples 23-26 and itraconazole, fluconazole, and saperconazole were tested for in vivo oral antifungal activity in a Candida systemic model using CF1 male mice , average weight 20 g, Harlan Sprague Dawley, Inc., Indianapolis, Ind. infected by IV injection into the tail vein of C. albicans C-43 (5 million CFUs). The drugs were dissolved in polyethylene glycol-200 (PEG-200) and tested by orally administering 50, 25 and 10 mpk of each drug 4 hours post infection and once daily for 3 more days. Oral efficacy was measured after four (4) days by percent survival and by the number of organisms remaining in the kidneys i.e., the Colony Forming Units (CFUs). The mice were sacrificed and the kidneys of individual mice were homogenized in sterile saline, diluted and spread onto Mycosel agar. Colony counts were determined after 48 hours at 37°C. For calculation of geometric means, mice that died during the experiment were considered to have 10^9 CFUs/kidneys (based on numerous previous experiments).
The compounds of Examples 23-24 and itraconazole, fluconazole, were tested for in vivo oral antifungal anctivity in a Candida systemic model using normal and compromised CF1 mice infected with C. albicans C-65 (5 million CFUs). The procedure of Example 33 was followed. The drugs were dissolved in polyethylene glycol-200 ("PEG-200) at room temperature and tested by orally administering 100, 50, 25, 10 and 1 mpk of each drug. Oral efficacy was measured by percent survival and by the number of organisms remaining in the kidneys (CFUs) after four days. […] The pharmaceutical composition of the preferred compound of formula IIb of Eample 24 in hydroxypropyl beta cyclodextrin ("HPβCD") having 7.4 hydroxypropyl groups per HPβCD (obtained from Pharmatec, Inc., Alachua, FL 32615) was prepared by admixing the appropriate amount of the compound IIa with a 40% (w/v) solution of HPβCD (4 g of HPβCD per 10 mL of purified water). Gentle heating was used to form a clear solution. For the 10 mpk dose, 12 mg of Ha was added to 6 mL of a 40% w/v solution of HPβCD. For dilutions, sterile water was added to the solution with mixing. The pharmaceutical composition of itraconazole and the Pharmatec HPβCD described above was prepared as follows. Propylene glycol (10 mL) was admixed with 0.95 mL of concentrated HCI at 40°-45°C with stirring. Itraconazole (2.5 g) was added thereto and stirring was continued until homogeneous. The mixture so formed was cooled to 20° to 30°C and admixed with a solution of 60 g of HPβCD in 40 mL of purified water to form a clear solution. The pH was adjusted to a value of 1.9-2.1 with 10N NaOH and sufficient purified water added (with mixing) to a final volume of 100 mL. For dilutions, sterile water was added to the itraconazole - HPβCD.

Aspergillus flavus [2] = assay: Aspergillus flavus pulmonary infection model in compromised mice, oral treatment; conditions: for %SURVIVAL / %ANIMALS NEG / CFU-GEO MEAN OF SURVIVORS: 18 days post infection; for %SURVIVAL: compromised CF-1 mice; for %ANIMALS NEG: negative = <10 colonies; for CFU-GEO MEAN OF SURVIVORS: geometric mean of the logarithm of CFU remaining in the lung
[3] = 33 mg/kg PO once a day for 4 days
[4] = 66 mg/kg PO once a day for 4 days
[5] = 100 mg/kg PO once a day for 4 days
[6] = 600 Rads Mice (compromised), 10 MPK PO in PEG-200, 1/day x 4 days, day 4 post-infection
[7] = 600 Rads Mice (compromised), 10 MPK PO in PEG-200, day 4
[8] = 600 Rads Mice (compromised), 25 MPK PO in PEG-200, 1/day x 4 days, day 4 post-infection
[9] = 600 Rads Mice (compromised), 25 MPK PO in PEG-200, day 4
[10] = 600 Rads Mice (compromised), 50 MPK PO in PEG-200, 1/day x 4 days, day 4 post-infection
[11] = 600 Rads Mice (compromised), 50 MPK PO in PEG-200, day 4
[12] = 600 Rads Mice (compromised), 100 MPK PO in PEG-200, 1/day x 4 days, day 4 post-infection
[13] = 600 Rads Mice (compromised), 100 MPK PO in PEG-200, day 4
[14] = Normal Mice, 1 MPK PO in PEG-200, 1/day x 4 days, day 4 post-infection
[15] = Normal Mice, 1 MPK PO in PEG-200, day 4
[16] = Normal Mice, 10 MPK PO in PEG-200, 1/day x 4 days, day 4 post-infection
[17] = Normal Mice, 10 MPK PO in PEG-200, day 4
[18] = Normal Mice, 25 MPK PO in PEG-200, 1/day x 4 days, day 4 post-infection
[19] = Normal Mice, 25 MPK PO in PEG-200, day 4
[20] = Normal Mice, 50 MPK PO in PEG-200, 1/day x 4 days, day 4 post-infection
[21] = Normal Mice, 50 MPK PO in PEG-200, day 4
[22] = 33 mg/kg PO [3RX/DAY] for 4 days

SMILES | %ANIMALS NEG (Aspergillus flavus [1]; [3]) | %ANIMALS NEG (Aspergillus flavus [1]; [4]) | %SURVIVAL (Aspergillus flavus [1]; [5]) | %ANIMALS NEG (Aspergillus flavus [1]; [5]) | % S (Percent Survival) (C. albicans C-65; [6]) | CFUs (GM) (C. albicans C-65; [7]) | % S (Percent Survival) (C. albicans C-65; [8]) | CFUs (GM) (C. albicans C-65; [9]) | % S (Percent Survival) (C. albicans C-65; [10]) | CFUs (GM) (C. albicans C-65; [11]) | % S (Percent Survival) (C. albicans C-65; [12]) | CFUs (GM) (C. albicans C-65; [13]) | % S (Percent Survival) (C. albicans C-65; [14]) | CFUs (GM) (C. albicans C-65; [15]) | % S (Percent Survival) (C. albicans C-65; [16]) | CFUs (GM) (C. albicans C-65; [17]) | % S (Percent Survival) (C. albicans C-65; [18]) | CFUs (GM) (C. albicans C-65; [19]) | % S (Percent Survival) (C. albicans C-65; [20]) | CFUs (GM) (C. albicans C-65; [21]) | also measured
CCC(C)n1ncn(-c2ccc(N3CCN(c4ccc(OCC5COC(Cn6cncn6)(c6ccc(Cl)cc6Cl)O5)cc4)CC3)cc2)c1=O (stereo not shown) [Itraconazole, reference compound] | 0% | 0% | 20% | 0% | 0% | 9.00 | 0% | 9.00 | 0% | 9.00 | 20% | 8.45 | 0% | 900 | 30% | 7.64 | 50% | 6.93 | 60% | 5.98 | % S (Percent Survival) (C. albicans C-65; 600 Rads Mice (compromised), 10 MPK PO in Beta-CD-H, 1/day x 4 days, day 4): 30%; CFUs (GM) (C. albicans C-65; 600 Rads Mice (compromised), 10 MPK PO in Beta-CD-H, day 4): 8.11; % S (Percent Survival) (C. albicans C-65; 600 Rads Mice (compromised), 25 MPK PO in Beta-CD-H, 1/day x 4 days, day 4): 60%; CFUs (GM) (C. albicans C-65; 600 Rads Mice (compromised), 25 MPK PO in Beta-CD-H, day 4): 7.98; % S (Percent Survival) (C. albicans C-65; Normal Mice, 10 MPK PO in Beta-CD-H (HPβCD vehicle for itraconazole), 1/day x 4 days, day 4): 0%; CFUs (GM) (C. albicans C-65; Normal Mice, 10 MPK PO in Beta-CD-H, day 4): 9.00; % S (Percent Survival) (C. albicans C-65; Normal Mice, 25 MPK PO in Beta-CD-H (HPβCD vehicle for itraconazole), 1/day x 4 days, day 4): 100%; CFUs (GM) (C. albicans C-65; Normal Mice, 25 MPK PO in Beta-CD-H, day 4): 6.19; %SURVIVAL (Aspergillus flavus [2]; [22]): 10%; %ANIMALS NEG (Aspergillus flavus [2]; [22]): 0%; %SURVIVAL (Aspergillus flavus [2]; [3]): 0%; %SURVIVAL (Aspergillus flavus [2]; [4]): 0%; PERCENT SURVIVAL AFTER 5 DAYS (5D) (Aspergillus flavus [2]; head prints 50 mg/kg (third dose column, c3), in PEG-200 daily for 4 days, CF-1 mice): 17
CC[C@H](C)n1ncn(-c2ccc(N3CCN(c4ccc(OC[C@@H]5CO[C@@](Cn6cncn6)(c6ccc(F)cc6F)C5)cc4)CC3)cc2)c1=O [Example 24, (-)-[(5R)-cis]-4-[4-[4-[4-[[5-(2,4-Difluorophenyl)-5-(1H-1,2,4-triazol-1-ylmethyl)tetrahydrofuran-3-yl]methoxy]phenyl]-1-piperazinyl]phenyl]-2,4-dihydro-2-[(1S)-(1-methylpropyl)]-3H-1,2,4-triazol-3-one] | 0% | 0% | 100% | 20% | 0% | 9.00 | 20% | 8.27 | 30% | 7.58 | 80% | 6.28 | 30% | 7.73 | 40% | 7.48 | 90% | 4.67 | 100% | 4.44 | %SURVIVAL (Aspergillus flavus [1]; [3]): 0%; %SURVIVAL (Aspergillus flavus [1]; [4]): 50%; oral activity in the Aspergillus pulmonary mouse model (Aspergillus flavus [1]; PO, result in words (active / inactive)): exhibit oral activity; oral activity against Aspergillus flavus pulmonary infections compared with itraconazole, fluconazole and saperconazole (Aspergillus flavus [1]; in vivo mouse model, PO, result in words): more active orally; % S (Percent Survival) (C. albicans C-65; 600 Rads Mice (compromised), 10 MPK PO in Beta-CD, 1/day x 4 days, day 4): 30%; CFUs (GM) (C. albicans C-65; 600 Rads Mice (compromised), 10 MPK PO in Beta-CD, day 4): 7.88; % S (Percent Survival) (C. albicans C-65; Normal Mice, 1 MPK PO in Beta-CD (hydroxypropyl-beta-cyclodextrin), 1/day x 4 days, day 4): 70%; CFUs (GM) (C. albicans C-65; Normal Mice, 1 MPK PO in Beta-CD, day 4): 5.97; % S (Percent Survival) (C. albicans C-65; Normal Mice, 10 MPK PO in Beta-CD (hydroxypropyl-beta-cyclodextrin), 1/day x 4 days, day 4): 100%; CFUs (GM) (C. albicans C-65; Normal Mice, 10 MPK PO in Beta-CD, day 4): 4.94; oral activity in the Candida systemic model compared with itraconazole (C. albicans C-65; doses of 50 and 25 mpk, each drug dissolved in PEG-200, result in words): more active orally; activity against systemic candidiasis compared with itraconazole and saperconazole (C. albicans C-65; normal and compromised mice, result in words (text refers to Tables II and V)): more active; %SURVIVAL (Aspergillus flavus [2]; [22]): 40%; CFU-GEO MEAN OF SURVIVORS (Aspergillus flavus [2]; [22]): 2.4; %ANIMALS NEG (Aspergillus flavus [2]; [22]): 0%; CFU-GEO MEAN OF SURVIVORS (Aspergillus flavus [2]; [4]): 2.25; CFU-GEO MEAN OF SURVIVORS (Aspergillus flavus [2]; [5]): 1.95

Reference: EP0610377B1, “TRI-SUBSTITUTED TETRAHYDROFURAN ANTIFUNGALS” (SCHERING CORPORATION, priority 1991, dated 1993)
